Experimental data published in PMC3102446, “Different Effects of Mg^2+ and Zn^2+ on the Two Sites for Alkylammonium Compounds in Pseudomonas aeruginosa Phosphorylcholine Phosphatase” (Enzyme Research, 2011).

Each molecule was assayed against T1, Pseudomonas aeruginosa phosphorylcholine phosphatase (PchP) (Pseudomonas aeruginosa, UniProt Q9HTR2) (assay: biochemical). Settings: not given.
T1 construct: His-tag fusion produced in E. coli BL21 CodonPlus; purified with EDTA to remove residual metal
T1 sequence (Q9HTR2 23-349): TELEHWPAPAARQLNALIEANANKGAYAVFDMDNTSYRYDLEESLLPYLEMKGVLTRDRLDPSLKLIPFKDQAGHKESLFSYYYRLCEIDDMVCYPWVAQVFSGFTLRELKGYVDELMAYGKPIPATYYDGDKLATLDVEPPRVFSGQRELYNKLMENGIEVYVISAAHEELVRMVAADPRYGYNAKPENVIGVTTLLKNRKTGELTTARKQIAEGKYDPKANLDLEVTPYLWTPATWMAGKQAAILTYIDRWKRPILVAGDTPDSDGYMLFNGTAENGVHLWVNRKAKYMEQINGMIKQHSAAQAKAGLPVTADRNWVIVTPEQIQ
Source text: inhibition of p-NPP hydrolysis, DYNAFIT global fit on Pseudomonas aeruginosa phosphorylcholine phosphatase (PchP)
Work on `CC(C)(N)CO` [2-amino-2-methyl-1-propanol] yielded a Ki of 210 ± 10 µM. Work on `C[N+](C)(C)CC(=O)[O-]` [Betaine] yielded a Ki of 1440 ± 90 µM. Molecule `C[N+](C)(C)CCCl` [Chlorocholine] has a Ki of 120 ± 10 µM. Molecule `C[N+](C)(C)CCO` [Choline] has a Ki of 100 ± 10 µM. Work on `C[N+](C)(C)CCCCCCCCCC[N+](C)(C)C` [Decamethonium] yielded a Ki of 80 ± 10 µM. `C[N+](C)(C)CCCCCC[N+](C)(C)C` [Hexamethonium] showed a Ki of 80 ± 10 µM. With `N[C@H](CO)Cc1c[nH]cn1` [L-histidinol] the Ki was 310 ± 80 µM. `CN(C)C(=O)Oc1cccc([N+](C)(C)C)c1` [Neostigmine] was tested, and the Ki was 570 ± 50 µM. In the case of `C[N+](C)(C)C` [Tetramethylammonium], the Ki is reported as 35 ± 8 µM. `CN(C)C` [Trimethylamine] gave a Ki of 60 ± 10 µM. Work on `COc1cc2c3cc1Oc1cc(ccc1O)C[C@@H]1c4c(cc(OC)c(O)c4Oc4ccc(cc4)C[C@@H]3N(C)CC2)CC[N+]1(C)C` [Tubocurarine] yielded a Ki of 2510 ± 210 µM.

The molecules below were run on C[N+](C)(C)CCOP(=O)([O-])O (assay: purified protein). Settings: 0.25-2 mM Mg2+, 100 mM sodium acetate pH 5.0, 37 °C, kcat1 of productive EAS complex.
Source text: Pi release assay, DYNAFIT global fit on Pseudomonas aeruginosa phosphorylcholine phosphatase (PchP)
Work on “Pseudomonas aeruginosa phosphorylcholine phosphatase (PchP) (Pseudomonas aeruginosa PAO1)” yielded a Km of 21 ± 8 µM and a kcat of 121 ± 8 s⁻¹.
